Assay [1] has as its system ANGPTL4 gene expression. Kind of assay: ANGPTL4 expression (qPCR) in breast cancer cell line MDA-MB-231. The class given is cell-based, human. The note with it: for TGF-beta2-induced ANGPTL4 expression: MDA-MB-231, 1 μM pre-treatment 24 hours, then TGF-beta2 2 ng/ml for 6 hours. How it is done: FIG. 6: Influence of the substances of this invention compound 1 and compound 5 on the induction of ANGPTL4 expression by TGF-beta2 in the breast cancer cell line MDA-MB-231. • The human breast cancer cell line MDA-MB-231 is pre-treated for 24 hours with 1 μM of the substances of this invention compound 1 or compound 5, respectively, and subsequently stimulated with TGF-beta2 (2 ng/ml) for 6 hours. The relative ANGPTL4 expression is determined by qPCR.
The influence of substances of this invention on PPAR-beta/delta regulated genes like for example ANGPTL4 which codes for the angiopoietin-like protein ANGPTL4 is assessed in different cells with a confluence of 70% to 80% in a 6-well cell culture plate. For this purpose, cultivated human myofibroblasts (WPMY-1), peritoneal mouse macrophages or cells of the human breast cancer cell line MDA-MB-231 are treated for 24 hours with 1 μM of the substances of this invention. Cells of the breast cancer cell line are in addition stimulated for 6 hours with TGF-beta2 (2 ng/ml) which is commercially available. Subsequently, RNA is isolated from the cells by procedures known to the expert and analyzed by quantitative PCR (qPCR, real time qPCR, RT-qPCR) also known to those skilled in the art. For this, cDNA is synthesized using 0.25 μg to 1 μg of RNA, oligo(dT)-primers and a commercially available cDNA synthesis kit. qPCR is then conducted in a Mx3000P RT-qPCR system (Stratagene, La Jolla, Calif., USA) according to the manufacturer's instructions with 40 cycles, an annealing temperature of 60° C., and for example human ANGPTL4 primers (fw: […]; rv: […]) and the ribosomal I27 (fw: […]; rv: […]) as normalizing gene known to the expert in this field. […] The respective IC50 value (mean inhibitory concentration) for substances of this invention compound 1 and compound 2 is depicted in FIG. 5 B and is maximal 20 nM in WPMY-1 cells and maximal 30 nM in peritoneal mouse macrophages, respectively.
In general terms: In qPCR the cycle at which signal appears reflects the starting amount.

Assay [2] has as its system ANGPTL4 gene expression. Kind of assay: ANGPTL4 gene expression (qPCR) in WPMY-1 myofibroblasts. It counts as cell-based, human. Conditions: Homo sapiens, 6 h; WPMY-1 cells, six hours treatment; read-out: IC50 (mean inhibitory concentration), endogenous ANGPTL4 expression. As for the experimental part:
(§1) FIG. 5: Influence of the substances of this invention comparative compound (CC) 2, compound 1, compound 5, compound 2 and compound 3 on ANGPTL4 gene expression. • (A) Comparison of relative ANGPTL4 expression, (B) mean inhibitory concentration of substances of this invention. (A) Human myofibroblasts (WPMY-1) are treated for 24 hours with the substances of this invention (1 μM), then RNA is isolated, the cDNA synthesized and analyzed by qPCR, normalized to L27 gene expression. (B) Titration of the effect of substances of this invention on the endogenous ANGPTL4 expression in WPMY-1 cells (left) or peritoneal mouse macrophages (right) after cells have been treated for six hours with the substances of this invention compound 1 and compound 2, respectively; RNA isolation, cDNA synthesis and qPCR as described for (A). The relative expression is calculated in relation to DMSO-treated cells. All values are average values of triplicates (+1-standard deviation). Asterisks (***, **, *) indicate significant differences to DMSO-treated cells (***: p<0.001 after t-test; *: p <0.05).
The influence of substances of this invention on PPAR-beta/delta regulated genes like for example ANGPTL4 which codes for the angiopoietin-like protein ANGPTL4 is assessed in different cells with a confluence of 70% to 80% in a 6-well cell culture plate. For this purpose, cultivated human myofibroblasts (WPMY-1), peritoneal mouse macrophages or cells of the human breast cancer cell line MDA-MB-231 are treated for 24 hours with 1 μM of the substances of this invention. Cells of the breast cancer cell line are in addition stimulated for 6 hours with TGF-beta2 (2 ng/ml) which is commercially available. Subsequently, RNA is isolated from the cells by procedures known to the expert and analyzed by quantitative PCR (qPCR, real time qPCR, RT-qPCR) also known to those skilled in the art. […]

Assay [3] relates to ANGPTL4 gene expression. Kind of assay: ANGPTL4 gene expression (qPCR) in peritoneal mouse macrophages. It counts as cell-based. Conditions: Macrophage, 6 h, six hours treatment, read-out: IC50 (mean inhibitory concentration), endogenous ANGPTL4 expression. How it is done:
as §1, with “All values are average values of triplicates (+1-standard deviation). Asterisks (***, **, *) indicate significant differences to DMSO-treated cells (***: p<0.001 after t-test; *: p <0.05).” left out
The influence of substances of this invention on PPAR-beta/delta regulated genes like for example ANGPTL4 which codes for the angiopoietin-like protein ANGPTL4 is assessed in different cells with a confluence of 70% to 80% in a 6-well cell culture plate. […] Subsequently, RNA is isolated from the cells by procedures known to the expert and analyzed by quantitative PCR (qPCR, real time qPCR, RT-qPCR) also known to those skilled in the art. […]

Assay [4] addresses T1, GST-PPAR beta/delta LBD (Homo sapiens, UniProt Q03181).
T1 construct: GST-PPAR beta/delta LBD (GST=glutathione S-transferase); purchased Invitrogen, Darmstadt, Germany
T1 sequence (Q03181 211-439 limits assumed): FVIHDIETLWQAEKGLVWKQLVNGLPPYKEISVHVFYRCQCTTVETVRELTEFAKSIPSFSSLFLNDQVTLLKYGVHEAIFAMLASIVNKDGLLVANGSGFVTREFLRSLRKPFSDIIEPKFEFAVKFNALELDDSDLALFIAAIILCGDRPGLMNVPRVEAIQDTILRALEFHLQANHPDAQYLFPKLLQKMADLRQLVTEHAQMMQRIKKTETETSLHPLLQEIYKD
Kind of assay: Ligand-induced binding of corepressor peptide SMRT-ID2, TR-FRET. Conditions: concentration dependent. It counts as biochemical. As for the experimental part:
FIG. 2: Induction of corepressor peptide binding to GST-PPAR beta/delta ligand binding domain (LBD) in vitro in dependency of the concentration of the substances of this invention comparative compound (CC) 2, compound 1 (A), compound 2 (B), compound 3 (C), compound 4 (D) and compound 5 (E). The interaction of fluorescein-labeled SMRT-ID2 peptide with recombinant GST-PPAR beta/delta LBD bound to a terbium-labeled anti-GST antibody is determined by TR-FRET analysis. Shown is the ratio of fluorescence intensity at 520 nm (fluorescein emission, excited by terbium emission) and 495 nm (terbium emission). All data points represent average values of triplicates (+/−standard deviation).
B) The ligand-induced binding of the commercially available fluorescein-labeled corepressor peptide SMRT-ID2 ([…]) (Invitrogen, Darmstadt, Germany) to GST-PPAR beta/delta is for example measured by TR-FRET analysis using a terbium-labeled anti-GST antibody in a VICTOR3V Multilabel Counter (WALLAC 1420; PerkinElmer Life and Analytical Sciences, Rodgau, Germany). The measurement is performed in a buffer composed of 100 mM KC, 20 mM Tris pH 7.9, 0.01% Triton X100 and 1 μg/μL bovine serum albumin.
On the technique in general: TR-FRET usually uses a lanthanide donor and a delayed reading to cut background.

In assay [5] the target is T1, GST-PPAR beta/delta LBD. Kind of assay: Inhibition of compound 1-induced binding of corepressor peptide SMRT-ID2, TR-FRET. The class given is biochemical. The note with it: 1 μM test substance, increasing concentrations of inverse agonist compound 1. How it is done: FIG. 3: Inhibition of agonist-induced co-activator peptide binding (A) and inverse agonist compound 1-induced corepressor peptide binding (B) by the substance of this invention compound 5. • The recruitment of the co-activator or corepressor peptide, respectively, is determined in a TR-FRET assay. As co-activator peptide, C33 is utilized, as corepressor peptide SMRT-ID2. The experiment is performed with a constant concentration of 1 μM of the substance of this invention compound 5 and increasing concentrations of the agonist L165041 (A) or the inverse agonist compound 1 (B), respectively.
C) The inhibition of the recruitment of co-activator peptide C33 known to the expert in this field mediated by PPAR beta/delta agonist L165,041 or the inhibition of the inverse agonist inventive compound 1-mediated binding of the corepressor peptide SMRT-ID2 to GST-PPAR beta/delta LBD by the substance of this invention compound 5 (1 μM) was also determined by TR-FRET measurements. Both is shown in FIGS. 3 A and B in dependency of the concentration of the agonist (A) and the inverse agonist (B), respectively.

Entries after “also recorded” stand apart in the source; their conditions may differ.

With `CCCCCCNc1ccc(NS(=O)(=O)c2ccsc2C(=O)OC)c(OC)c1` [compound 1, methyl 3-(N-(4-(hexylamino)-2-methoxyphenyl)sulfamoyl)thiophene-2-carboxylate], in assay [1], the “TGF-beta2-induced ANGPTL4 expression” value is recorded as “loss of TGF-beta2-induced ANGPTL4 expression”. Moreover, the ANGPTL4 expression result in assay [1] (breast cancer cell line MDA-MB-231-luc21H4) is “drastic reduction”. For the same compound, the IC50 in assay [2] was at most 20 nM; in assay [3], at most 30 nM. The “induction of interaction of PPAR beta/delta LBD with corepressor peptide SMRT-ID2” value in assay [4] was “clearly demonstrate the interaction; also recorded: induce”.
As for `CCCCCCNc1ccc(NS(=O)(=O)c2ccsc2C(=O)OC)cc1OC` [compound 2, methyl 3-(N-(4-(hexylamino)-3-methoxyphenyl)sulfamoyl)thiophene-2-carboxylate], the IC50 in assay [2] is at most 20 nM; in assay [3], at most 30 nM. Moreover, the “induction of interaction of PPAR beta/delta LBD with corepressor peptide SMRT-ID2” value in assay [4] was “clearly demonstrate the interaction; also recorded: induce”.
For `COC(=O)c1sccc1S(=O)(=O)Nc1ccc(NC(C)(C)C)cc1OC` [compound 5, methyl 3-(N-(4-(tert-butylamino)-2-methoxyphenyl)sulfamoyl)thiophene-2-carboxylate], the “inhibition of compound 1-mediated interaction of LBD with corepressor peptide SMRT-ID2” value in assay [5] is “prevents”. Besides, in assay [1], the “TGF-beta2-induced ANGPTL4 expression” value is reported as “does not influence the induction of ANGPTL4 expression”.

Source of the values: patent publication US20150018411A1, “COMPOUNDS AS PPAR BETA/DELTA INHIBITORS FOR TREATING PPAR BETA/DELTA-MEDIATED DISEASES” (PHILIPPS-UNIVERSITAT MARBURG, priority 2011, published 2015).
